According to the PolyMetriX glass transition set:

Row | glass transition temperature [°C] | SMILES
1 | -68.00 | *CCOCCOC(=O)CCCCCCCCCCCCCCCCC(=O)O* (repeat unit)
2 | 202.00 | *c1ccc(OC(=O)Nc2ccc(-c3ccc(NC(=O)Oc4ccc(-c5nc(-c6ccc([N+](=O)[O-])cc6)[nH]c5*)cc4)cc3OC)c(OC)c2)cc1 (repeat unit)
3 | 221.00 | *c1ccc(Nc2ccc(C3(c4ccc(Nc5ccc(S(*)(=O)=O)cc5)cc4)c4ccccc4-c4ccccc43)cc2)cc1 (repeat unit)
4 | 110.00 | *C(=O)Oc1ccc(C(=O)Oc2cccc(OC(=O)c3ccc(OC(=O)c4ccc(*)nc4)cc3)c2)cc1 (repeat unit)
5 | 50.00 | *CC(C#N)C(CCC(C)(O)C=C)C(*)(C)C (repeat unit)
6 | 235.40 | *c1ccc2c(c1)C(=O)N(c1ccc(C(C)(C)c3ccc(C(C)(C)c4ccc(N5C(=O)c6ccc(C(*)(C(F)(F)F)C(F)(F)F)cc6C5=O)cc4)cc3)cc1)C2=O (repeat unit)
7 | 10.10 | *CCC[Si](*)(C)O[Si](C)(C)CCCOc1ccc(C(=O)Oc2ccc(-c3ccc(C#N)cc3)cc2)cc1 (repeat unit)
8 | 199.50 | *Nc1ccc(NC(=O)c2ccc(NC(=O)CCCCCCCCCCC(=O)Nc3ccc(C(*)=O)cc3)cc2)cc1C(=O)OCCCCCCCCCCCCCC (repeat unit)
9 | 230.00 | *Nc1ccc(Cc2ccc(NC(=O)/C=C/c3ccc(/C=C/C(*)=O)cc3)cc2)cc1 (repeat unit)
10 | -36.00 | */C=C/CCCCCCCCCC(CCCCCCCCC*)COCCOCCOCCOCCOCc1ccc2ccc3cccc4ccc1c2c34 (repeat unit)
11 | 205.00 | *CCN(CCN1C(=O)c2ccc(C(c3ccc4c(c3)C(=O)N(*)C4=O)(C(F)(F)F)C(F)(F)F)cc2C1=O)c1ccc(/N=N/c2ccc([N+](=O)[O-])cc2C)cc1 (repeat unit)
12 | 284.00 | *Nc1ccc(C2(c3ccc(NC(=O)c4cc(C(*)=O)cc(C(C)(C)C)c4)cc3)c3ccccc3-c3ccccc32)cc1 (repeat unit)
13 | 157.00 | *CCCC(C)(C)CNC(=O)c1ccc(C(=O)N*)cc1 (repeat unit)
14 | 225.00 | *Nc1ccc(NC(=O)c2ccc(NC(=O)CCCCCCCCC(=O)Nc3ccc(C(*)=O)cc3)cc2)cc1C(=O)OCCCCCCCCCCCCCC (repeat unit)
15 | 270.00 | *c1cccc(C(=O)Nc2ccc(Oc3ccc(-c4ccc(Oc5ccc(NC(=O)c6cccc(N7C(=O)c8ccc(-c9ccc%10c(c9)C(=O)N(*)C%10=O)cc8C7=O)c6)cc5)cc4)cc3)cc2)c1 (repeat unit)
16 | 96.00 | *Oc1ccc(OC(=O)c2cc(OCCCCCCCCCCCC)c(C(*)=O)cc2OCCCCCCCCCCCC)cc1-c1ccccc1 (repeat unit)
17 | 168.00 | *Oc1ccc2ccc(Oc3ccc(C(=O)Nc4cccc(NC(=O)c5ccc(*)cc5)c4)cc3)cc2c1 (repeat unit)
18 | 194.00 | *c1ccc(OCOc2ccc(-c3nc(-c4ccc([N+](=O)[O-])cc4)oc3*)cc2)cc1 (repeat unit)
19 | 399.00 | *c1ccc(-c2ccc(N3C(=O)c4c(c(-c5ccccc5)c(-c5ccc(Oc6ccc(-c7c(-c8ccccc8)c8c(c(-c9ccccc9)c7-c7ccccc7)C(=O)N(*)C8=O)cc6)cc5)c(-c5ccccc5)c4-c4ccccc4)C3=O)cc2)cc1 (repeat unit)
20 | 237.00 | *c1cccc(N2C(=O)C(=O)N(c3ccc(Cc4ccc(N5C(=O)C(=O)N(*)C5=O)cc4)cc3)C2=O)n1 (repeat unit)
21 | 297.00 | *c1ccc(-c2ccc(C3(*)c4ccccc4-c4ccccc43)cc2)cc1 (repeat unit)
22 | 133.00 | *c1ccc(Sc2ccc(Sc3ccc(Sc4ccc(S(*)=O)cc4)cc3)cc2)cc1 (repeat unit)
23 | 167.00 | *Nc1cc(NC(=O)c2cc(OCCN(C)c3ccc(C#N)cc3)cc(C(*)=O)c2)cc(C(=O)OCCN(C)c2ccc(C#N)cc2)c1 (repeat unit)
24 | 125.00 | *CCN(CCOC(=O)Nc1ccc(C)c(NC(=O)O*)c1)c1ccc(C(C#N)=C(C#N)C#N)cc1 (repeat unit)
25 | 240.00 | *c1ccc(-c2nc3cc(C(=O)c4ccc5nc(-c6ccccc6)c(-c6ccc(-n7c(=O)c8cc9c(=O)n(*)c(=O)c9cc8c7=O)cc6)nc5c4)ccc3nc2-c2ccccc2)cc1 (repeat unit)

Row | glass transition temperature [°C] | SMILES
26 | 160.00 | *CCCCCCCNC(=O)c1ccc(C(=O)N*)cc1 (repeat unit)
27 | 164.00 | *CCCCCCNC(=O)c1ccc(C(C)(CC)c2ccc(C(=O)N*)cc2)cc1 (repeat unit)
28 | 180.00 | *CCN1C(=O)c2ccc(C(c3ccc4c(c3)C(=O)N(*)C4=O)(C(F)(F)F)C(F)(F)F)cc2C1=O (repeat unit)
29 | 67.00 | *CC(=O)NCCCCCCNC(=O)COc1ccc(O*)cc1 (repeat unit)
30 | 140.00 | *CCCCCCCCCCNC(=O)c1ccc(Cc2ccc(C(=O)N*)cc2)cc1 (repeat unit)
31 | 107.00 | *c1cccc(NC(=O)CCCCCCCCCCC(=O)Nc2cccc(S(*)(=O)=O)c2)c1 (repeat unit)
32 | 216.00 | *C(=O)Nc1ccc(Oc2ccc(C(C)(C)c3ccc(Oc4ccc(NC(=O)c5ccc(N6C(=O)c7ccc(*)cc7C6=O)cc5)cc4)cc3)cc2)cc1 (repeat unit)
33 | 72.00 | *CCCC1(C)CCN(C(=O)CC(C)C(=O)N2CCC(*)(C)CC2)CC1 (repeat unit)
34 | 282.00 | *c1ccc(Oc2ccc(C(=O)c3ccc(Oc4ccc(-c5nc(-c6cccc(-c7nc(*)c(-c8ccccc8)[nH]7)c6)[nH]c5-c5ccccc5)cc4)cc3)cc2)cc1 (repeat unit)
35 | -12.00 | *CC(*)C(=O)OCCC(F)(F)C(F)(F)C(F)(F)C(F)(F)C(F)(F)C(F)(F)F (repeat unit)
36 | 100.00 | *Oc1c(Cl)cc(C(C)(C)c2cc(Cl)c(OC(=O)CCCCC(*)=O)c(Cl)c2)cc1Cl (repeat unit)
37 | 127.00 | *CC(O)CN(C)S(=O)(=O)c1cccc(S(=O)(=O)N(C)CC(O)COc2ccc(C3(c4ccc(O*)cc4)c4ccccc4-c4ccccc43)cc2)c1 (repeat unit)
38 | 71.00 | *c1ccc(C(=O)OCCCCCCOc2ccc(/C=C3\CCC/C(=C\c4ccc(OCCCCCCOC(=O)c5ccc(-c6nnc(*)o6)cc5)cc4)C3=O)cc2)cc1 (repeat unit)
39 | 10.00 | *CC(*)(C)C(=O)OCCCCCCCCCCCOc1ccc(C(=O)Oc2ccc(C#N)cc2)cc1 (repeat unit)
40 | 45.00 | *CC(*)(C)C(=O)OCCCCOc1ccc(C(=O)Oc2ccc(OC)cc2)cc1 (repeat unit)
41 | 238.00 | *c1ccc(Oc2ccc(Oc3ccc(N4C(=O)c5cccc(Oc6c(C)cc(Cc7cc(C)c(Oc8cccc9c8C(=O)N(*)C9=O)c(C)c7)cc6C)c5C4=O)c(C)c3)cc2)cc1C (repeat unit)
42 | 210.50 | *c1ccc(S(=O)(=O)c2ccc(-n3nc(-c4ccccc4)c4cc(Oc5ccc(C(C)(C)c6ccc(Oc7ccc8c(-c9ccccc9)nn(*)c(=O)c8c7)cc6)cc5)ccc4c3=O)cc2)cc1 (repeat unit)
43 | -37.00 | *CC(*)C(=O)OCC(F)(F)C(F)(F)C(F)(F)C(F)(F)F (repeat unit)
44 | 27.00 | *CC(*)OC(=O)C(F)(F)C(F)(F)C(F)(F)F (repeat unit)
45 | 298.00 | *c1ccc2c(c1)C(=O)N(c1cccc(C(=O)Nc3ccc(Oc4ccc(NC(=O)c5cccc(N6C(=O)c7ccc(C(*)(C(F)(F)F)C(F)(F)F)cc7C6=O)c5)cc4)cc3)c1)C2=O (repeat unit)
46 | 162.00 | *Oc1ccc(C(C)(C)c2ccc(OC(=O)c3cccc(C(*)=O)c3)c(C)c2)cc1C (repeat unit)
47 | 117.00 | *CC(*)c1ccc(COc2ccc(-c3ccc(-c4ccc(C)cc4)c4nsnc34)cc2)cc1 (repeat unit)
48 | 236.00 | *c1ccc2c(c1)C(=O)N(c1ccc(Oc3ccc(C(=O)c4cccc(C(=O)c5ccc(Oc6ccc(N7C(=O)c8ccc(C(*)(C(F)(F)F)C(F)(F)F)cc8C7=O)cc6)cc5)c4)cc3)cc1)C2=O (repeat unit)
49 | 89.00 | *CCCCCCCCCCCCOc1ccc(/C=N/N=C/c2ccc(O*)cc2O)c(O)c1 (repeat unit)
50 | 177.00 | *Oc1ccc(S(=O)(=O)c2ccc(Oc3ccc(NC(=O)c4ccc(Oc5ccc(C(C)(C)c6ccc(C(C)(C)c7ccc(Oc8ccc(C(=O)Nc9ccc(*)cc9)cc8)cc7)cc6)cc5)cc4)cc3)cc2)cc1 (repeat unit)

Row | SMILES | glass transition temperature [°C]
51 | *OC(F)(F)C(*)(F)F (repeat unit) | -48.00
52 | *CC(*)Cc1ccccc1C (repeat unit) | 80.00
53 | *CC/C(C)=C(/*)C (repeat unit) | 4.00
54 | *c1ccc(Oc2ccc(Oc3ccc(P(=O)(c4ccccc4)c4ccc(Oc5ccc(Oc6ccc(-c7nc8ccccc8nc7*)cc6)cc5)cc4)cc3)cc2)cc1 (repeat unit) | 209.00
55 | *N(CCC)[Si](C)(C)C[Si](*)(C)C (repeat unit) | -20.00
56 | */C=C/C1CC(*)C(C#N)C1 (repeat unit) | 140.00
57 | *CC(*)CNc1ccc([N+](=O)[O-])cc1 (repeat unit) | 144.00
58 | *Nc1cccc2c1C(=O)c1cccc(N[Se]*)c1C2=O (repeat unit) | 52.00
59 | *CCSS* (repeat unit) | -27.00
60 | *CC(*)(C)C(=O)OCCOC (repeat unit) | 24.00
61 | *CCCC(*)(C)CC (repeat unit) | -23.00
62 | *CC(*)(F)C(=O)OCC(F)(F)C(F)F (repeat unit) | 90.50
63 | *CCCC(*)C (repeat unit) | -52.60
64 | *CC(*)C(=O)c1ccc(C(C)C)cc1 (repeat unit) | 62.50
65 | *Oc1ccc(C(C)(C)c2ccc(OC(=O)OCCN(CCOC(*)=O)c3ccccc3)cc2)cc1 (repeat unit) | 70.00
66 | *CC(*)(C)C(=O)OC(C)C(C)(C)C (repeat unit) | 108.00
